In publication PMC4882497 (British Journal of Pharmacology, 2016):

How the values were obtained:
[1] = tested on: male WT mice; experiment: Motor activity over 24 h in a novel cage; type: in vivo, mouse; conditions: 1 mg/kg i.p., 24 h in novel cage, vs saline, n = 8 vs 7
Experimental: Male WT mice were injected i.p. with either the long‐acting Y4 receptor agonist [K^30(PEG2)]hPP2‐36 (1mg kg^−1) or saline. Activity measurements were performed for 24 h in a novel cage. Mice were single‐housed in standard cages with food and water ad libitum. Movements of the mice were detected by an infrared sensor throughout light and dark phase (TSE LabMaster InfraMot, Bad Homburg, Germany).
To exclude non‐specific effects of [K^30(PEG2)]hPP2‐36 on motor activity that may compromise freezing detection during extinction training, we first injected male WT mice i.p. with [K^30(PEG2)]hPP2‐36 or saline and subsequently observed the activity of the mice for 24 h in a novel cage (Supporting Information Figure S4).

[2] = tested on: WT (C57Bl/6NCrl) mice; experiment: Cued fear extinction after peripheral injection, WT mice; type: in vivo, mouse
Experimental: (§1) Naïve WT (C57Bl/6NCrl) or Y4KO mice were used for fear conditioning experiments. Fear conditioning experiments were conducted during the light phase of the light/dark cycle in sound proof chambers (TSE Systems, Bad Homburg, Germany) by repetitive exposure of the mice to an auditory stimulus co‐terminating with a foot shock, as described in detail previously (Verma et al., 2012). Fear conditioning and context testing were performed in context A consisting of a transparent acrylic mouse conditioning chamber with a metal grid floor. The whole set‐up was enclosed by a sound attenuating chamber. Illumination was 80 lux, and chambers were cleaned with 70% ethanol. Fear recall as well as fear extinction and extinction recall was performed in a different context consisting of a dimly illuminated (10 lux) chamber with black, smooth walls and the floor cleaned with 1% acetic acid (context B).
(§2) On day 1 (context A), mice were subjected to a differential fear conditioning paradigm in which one auditory stimulus served as a CS because it was explicitly paired (CS+, 30 s white noise, 80 dB) with the US, whereas the second auditory stimulus was not paired (CS−, 30 s, 3.5 kHz, 80 dB). All animals received five CS− and five CS+ in an alternating order, starting with a CS+. The US co‐terminating with each CS+ consisted of a foot shock. […] On days 2 and 3, mice were tested for their context (context A for 15 min) and CS‐related fear memory (context B) respectively.
(§3) Fear conditioning was performed in WT (C57Bl6/NCrl) and Y4KO mice on day 1 (context A) as described in the previous paragraph. To avoid interference with postprandial released PP, mice were fasted overnight (16 h) before injection of the drug followed by fear extinction training. Water was freely available during the fasting period. Based on our previous results, a 16 h fasting period was required to reach our experimental aim (Verma et al., 2016). A control experiment was performed without food restriction (non‐fasting). [K^30(PEG2)]hPP2‐36 (1 mg·kg^−1) or saline was injected i.p. 60 min before behavioural testing, as indicated in the timeline of the respective experiments. For extinction experiments, mice were divided into two groups, receiving an i.p. injection of either the long‐acting Y4 receptor agonist [K^30(PEG2)]hPP2‐36 (1 mg·kg^−1) or saline in controls followed after 60 min by extinction training (extinction 1; 5 CS− and 25 CS+, context B). Mice were then tested on day 3 for extinction recall under drug‐free conditions by exposure to five CS+ (context B). To exclude any bias of group selection, another extinction session was performed on day 4 (extinction 2; 25 CS+, context B) followed by extinction recall on day 5 (five CS+; context B), both under drug‐free conditions. Spontaneous recovery (day 12) and renewal (day 13) were tested by exposing the mice to five CS+ in contexts B and A respectively.

[3] = tested on: Y4KO mice; experiment: Cued fear extinction after peripheral injection, Y4KO mice; type: in vivo, mouse; conditions: 1 mg/kg i.p. 60 min before extinction, fasted 16 h, vs saline, n = 10 per group
Experimental: as §1
On day 1 (context A), mice were subjected to a differential fear conditioning paradigm in which one auditory stimulus served as a CS because it was explicitly paired (CS+, 30 s white noise, 80 dB) with the US, whereas the second auditory stimulus was not paired (CS−, 30 s, 3.5 kHz, 80 dB). All animals received five CS− and five CS+ in an alternating order, starting with a CS+. The US co‐terminating with each CS+ consisted of a foot shock. […]

[4] = tested on: WT mice; experiment: Fear acquisition and consolidation after peripheral injection; type: in vivo, mouse; conditions: vs saline, n = 6 per group
Experimental: as §1, §2
as §3, with “Spontaneous recovery (day 12) and renewal (day 13) were tested by exposing the mice to five CS+ in contexts B and A respectively.” left out

[5] = tested on: orexin neurons in the lateral hypothalamus; experiment: c-Fos/orexin dual-labelling immunohistochemistry in lateral hypothalamus after fear extinction, WT mice; type: in vivo, mouse; conditions: i.p. 60 min before fear extinction, fasted 16 h, brains removed 90 min after testing, n = 7 per group
Experimental: A separate group of WT and Y4KO mice were fasted overnight (16 h), injected i.p. with [K^30(PEG2)]hPP2‐36 or saline and subjected to extinction training 60 min later. Using a cryostat 40 μm coronal, free‐floating sections were cut for subsequent immunohistochemistry.
Immunohistochemical analysis was performed on free‐floating, PFA‐fixed, 40 μm thick coronal sections using indirect peroxidase labelling, as described previously (Tasan et al., 2011). The following antisera were used: polyclonal rabbit anti‐c‐Fos (1:20 000 PC38, Calbiochem) and polyclonal rabbit anti‐pan‐orexin (1:1000, Abcam ab6214, Lot:GR63996‐1). In brief, coronal sections were incubated free‐floating in 10% normal goat serum (Biomedica, Vienna, Austria) in Tris–HCl buffered saline (TBS; 50 mM, pH 7.2) for 90 min, followed by incubation with primary antiserum. […]
The number of c‐Fos positive cells was obtained bilaterally from six matched sections per animal showing the lateral hypothalamus, at a magnification of 400×, in multiple separate fields and mean values were calculated for each mouse. Results are presented as number of immunoreactivity positive cells per section and expressed as mean ± SEM. […]

[6] = target: T1, hY1 (Homo sapiens, UniProt P25929); experiment: Inositol phosphate accumulation, COS-7 cells expressing hY1 and chimeric Gi/q protein; type: cell-based; conditions: agonist, inositol phosphate turnover, COS7 cells, 1 h stimulation, duplicate, at least two experiments
T1 construct: expressed in transfected cells
T1 sequence (P25929 1-384): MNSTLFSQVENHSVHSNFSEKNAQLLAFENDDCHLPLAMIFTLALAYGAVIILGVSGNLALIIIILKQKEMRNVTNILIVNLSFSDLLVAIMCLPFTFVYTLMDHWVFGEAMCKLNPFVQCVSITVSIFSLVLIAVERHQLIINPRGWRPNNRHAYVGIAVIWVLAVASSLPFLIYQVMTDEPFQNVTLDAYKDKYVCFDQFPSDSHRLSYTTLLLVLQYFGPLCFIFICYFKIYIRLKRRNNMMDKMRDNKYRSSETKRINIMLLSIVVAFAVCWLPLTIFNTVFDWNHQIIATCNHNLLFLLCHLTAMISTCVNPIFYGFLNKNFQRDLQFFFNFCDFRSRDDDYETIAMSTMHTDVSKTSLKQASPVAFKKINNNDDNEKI
Experimental: (§4) Agonist activity at Y receptors was assessed by measuring inositol phosphate accumulation in COS‐7 cells, as described previously (Hofmann et al., 2013). […] Stably transfected COS‐7‐hYR‐GαΔ6qi4myr cells were cultivated in DMEM with 4.5 g·L^−1 glucose and L‐glutamine supplemented with 10% (v/v) heat‐inactivated FCS, 100 units mL^−1 penicillin, 100 μg mL^−1 streptomycin, 1.5 mg mL^−1 G418‐sulfate and 146 μg mL^−1 hygromycin B in a humidified atmosphere at 37°C and 5% CO2. COS 7 cells were a gift from Prof. Dr. Torsten Schöneberg (Leipzig University). Stable cell lines were prepared as described in Mäde et al., 2014. Cells were grown in 48‐well plates (90 000 cells in 500 μL per well) for 24 h. […] Cells were lysed applying 0.1 M sodium hydroxide for 5 min at room temperature followed by neutralization with 0.2 M formic acid. […] Eluates were diluted with scintillation cocktail Ultima Gold (Perkin Elmer) and measured by a scintillation counter (Tri‐Carb 2910 TR from PerkinElmer). […] For each compound, global mean EC50 and pEC50 ± SEM (n ≥ 2) were calculated from the entire normalized concentration‐response curves by nonlinear regression using GraphPad Prism 5.0. […]
(§5) Activity at the human receptors, hY1, hY2, hY4 and hY5, was measured by accumulation of IP3, after channeling cAMP inhibition to phospholipase C activity, in COS7 cells.

[7] = target: T2, hY2 (Homo sapiens, UniProt P49146); experiment: Inositol phosphate accumulation, COS-7 cells expressing hY2 and chimeric Gi/q protein; type: cell-based; conditions: agonist, inositol phosphate turnover, COS7 cells, 1 h stimulation, duplicate, at least two experiments
T2 construct: expressed in transfected cells
T2 sequence (P49146 1-381): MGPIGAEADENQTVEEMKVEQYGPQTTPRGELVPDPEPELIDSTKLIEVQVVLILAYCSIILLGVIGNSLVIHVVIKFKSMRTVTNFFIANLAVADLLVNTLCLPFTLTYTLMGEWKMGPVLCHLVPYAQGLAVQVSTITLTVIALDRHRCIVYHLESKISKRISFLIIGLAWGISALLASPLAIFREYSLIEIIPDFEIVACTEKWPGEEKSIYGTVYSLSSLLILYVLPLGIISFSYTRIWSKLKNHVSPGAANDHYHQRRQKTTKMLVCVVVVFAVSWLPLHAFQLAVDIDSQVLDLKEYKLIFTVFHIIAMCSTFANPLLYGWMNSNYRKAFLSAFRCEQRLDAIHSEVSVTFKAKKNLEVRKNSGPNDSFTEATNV
Experimental: as §4, §5

[8] = target: T3, hY4 (Homo sapiens, UniProt P50391); experiment: Inositol phosphate accumulation, COS-7 cells expressing hY4 and chimeric Gi/q protein; type: cell-based; conditions: agonist, inositol phosphate turnover, COS7 cells; pEC50 ± SEM, n ≥ 2
T3 construct: expressed in transfected cells
T3 sequence (P50391 whole entry): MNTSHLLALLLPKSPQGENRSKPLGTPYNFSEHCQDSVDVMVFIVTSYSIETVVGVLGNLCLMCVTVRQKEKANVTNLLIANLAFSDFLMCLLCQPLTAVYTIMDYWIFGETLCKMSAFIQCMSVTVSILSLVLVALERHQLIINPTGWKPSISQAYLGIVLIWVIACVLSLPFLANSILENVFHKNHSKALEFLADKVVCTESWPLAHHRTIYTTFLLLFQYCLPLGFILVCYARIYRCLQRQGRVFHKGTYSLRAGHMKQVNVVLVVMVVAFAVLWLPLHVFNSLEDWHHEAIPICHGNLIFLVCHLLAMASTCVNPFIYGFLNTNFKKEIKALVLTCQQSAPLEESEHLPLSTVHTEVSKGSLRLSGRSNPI
Experimental: as §4, §5

[9] = target: T4, hY5 (Homo sapiens, UniProt Q15761); experiment: Inositol phosphate accumulation, COS-7 cells expressing hY5 and chimeric Gi/q protein; type: cell-based; conditions: agonist, inositol phosphate turnover, COS7 cells; pEC50 ± SEM, n ≥ 2
T4 construct: expressed in transfected cells
T4 sequence (Q15761 1-445): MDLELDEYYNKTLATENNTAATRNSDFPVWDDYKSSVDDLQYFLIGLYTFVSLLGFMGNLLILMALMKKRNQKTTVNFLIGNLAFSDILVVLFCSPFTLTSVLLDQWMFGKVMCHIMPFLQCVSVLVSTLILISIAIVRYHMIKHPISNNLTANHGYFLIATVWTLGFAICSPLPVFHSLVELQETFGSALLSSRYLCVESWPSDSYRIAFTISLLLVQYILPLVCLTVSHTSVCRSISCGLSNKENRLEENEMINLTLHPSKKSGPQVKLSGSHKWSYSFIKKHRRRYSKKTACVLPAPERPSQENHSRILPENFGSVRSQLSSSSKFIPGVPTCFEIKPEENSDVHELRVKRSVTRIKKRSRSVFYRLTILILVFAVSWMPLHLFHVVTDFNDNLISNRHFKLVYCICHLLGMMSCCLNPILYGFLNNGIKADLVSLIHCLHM
Experimental: as §4, §5

[10] = i.p. immediately after fear acquisition

general motor activity [1]	EC50 [6] [µM]	EC50 [7] [µM]	hY4 pEC50 [8]	hY5 pEC50 [9]	Substance	cued fear extinction learning (freezing to CS) ([2]; 1 mg/kg i.p. 60 min before extinction training, fasted 16 h, male WT mice, vs saline)	freezing at CS13 during extinction ([2]; 1 mg/kg i.p. 60 min before extinction, fasted 16 h, WT mice, n = 10 per group)	freezing during extinction recall ([2]; 1 mg/kg i.p. before extinction 1, fasted 16 h, recall 24 h later drug-free and non-fasting, male WT mice, vs saline)	freezing during spontaneous recovery ([2]; 1 mg/kg i.p. before extinction training 1 (day 2), fasted 16 h, tested day 12, context B, male WT mice, n = 7 per group)	freezing during renewal ([2]; 1 mg/kg i.p. before extinction training 1 (day 2), fasted 16 h, tested day 13, context A, male WT mice, n = 7 per group)	cued fear extinction learning, non-fasted ([2]; i.p. 60 min before extinction training, non‐fasted WT mice, vs saline, n = 6 per group)	cued fear extinction (freezing to CS) [3]	context fear after injection before fear acquisition ([4]; i.p. 60 min before fear acquisition, 16 h fasting, tested 24 h later)	CS-induced fear after injection before fear acquisition ([4]; i.p. 60 min before fear acquisition, 16 h fasting, tested 48 h later)	CS-induced freezing after injection immediately after fear acquisition (consolidation) [4, 10]	context fear after injection immediately after fear acquisition (consolidation) [4, 10]	percentage of cFos-positive orexin neurons in the lateral hypothalamus [5]
did not influence general motor activity	–	–	–	–	[K^30(PEG2)]hPP2‐36	significantly facilitated extinction learning	reduced freezing at CS13	reduction of freezing during extinction recall	reduced freezing	reduced freezing	did not facilitate extinction learning	did not respond	did not alter	did not alter	did also not change	did also not change	specifically reduced
–	> 1	> 1	8.0 ± 0.2	6.4 ± 0.1	[K^30(PEG2)]hPP2‐36 (H-PLEPVYPGDNATPEQMAQYAADLRRYINK(MeO‑PEG 2 kDa)LTRPRY-NH2) [lysine 30 carries 2000 Da MeO-PEG]	–	–	–	–	–	–	–	–	–	–	–	–
